According to patent US20010034454A1, “Description anti-mitotic agents which inhibit tubulin polymerization” (BYLOR UNIVERSITY AND ARIZONA DESEASE CONTROL RESEARCH …, priority 1998, published 2001):
Values after ≈ are worked out from the molar mass of the structure shown. Where two headings read alike, the source gives them in different places.

Legend:
SW1736 = assay: Human cancer cell line studies, SW1736; assay type: cell-based; conditions: Thyroid ca SW1736
Experimental: (§1) The assay used is described in Monks et al. Briefly, the cell suspensions, diluted according to tho particular cell type and the expected target cell density (5,000-40,000 cells per well based on cell growth characteristics), were added by pipet (100 μl) to 96-well microtiter plates. Inoculates were allowed a preincubation time of 24-28 hours at 37° C. for stabilization. Incubation with the inhibitor compounds lasted for 48 hours in 5% CO2 atmosphere and 100% humidity. Determination of cell growth was done by in situ fixation of cells, followed by staining with a protein-binding dye, sulforhodamine B (SRB), which binds to the basic amino acids of cellular macromolecules. The solubilized stain was measured spectrophotometrically.

tubulin = tested on: T1, tubulin; assay: Tubulin polymerization assay; assay type: biochemical, bovine; conditions: for IC50: purified tubulin […], GTP-induced, 350 nm, final steady-state number for compounds other than 1A and 10A, read-out: IC50 for inhibition of tubulin polymerization
T1 construct: Purified tubulin is obtained from bovine brain cells as described in Hamel and Lin
Experimental: The ability of the various above described compounds to inhibit tubulin polymerization can be determined by in vitro assay. A suitable assay system is that described by Bai et al. A method for purifying tubulin from bovine brain cells is described by Hamel and Lin.
IC50 values for tubulin polymerization were determined according to the procedure described in Bai et al. Purified tubulin is obtained from bovine brain cells as described in Hamel and Lin. Various amounts of inhibitor were preincubated for 15 minutes at 37° C. with purified tubulin. After the incubation period, the reaction was cooled and GTP was added to induce tubulin polymerization. Polymerization was then monitored in a Gilford spectrophotometer at 350 nm. The final reaction mixtures (0.25 ml) contained 1.5 mg/ml tubulin, 0.6 mg/ml microtubule-associated proteins (MAPs), 0.5 mM GTP, 0.5 mM MgCl2, 4% DMSO and 0.1 M 4-morpholineethanesulfonate buffer (MES, pH 6.4). […]

SK-N-SH = assay: Human cancer cell line studies, SK-N-SH; assay type: cell-based; conditions: Neuroblast SK-N-SH
Experimental: as §1

DU-145 = assay: Human cancer cell line studies, DU-145; assay type: cell-based; conditions: Prostate DU-145
Experimental: as §1

NCI-H460 = assay: Growth inhibitory activity, human cancer cell line NCI-H460 (SRB); assay type: cell-based; conditions: Lung-NSC NCI-H460
Experimental: as §1

FADU = assay: Human cancer cell line studies, FADU; assay type: cell-based; conditions: Pharynx-sqam FADU
Experimental: as §1

BXPC-3 = assay: Human cancer cell line studies, BXPC-3; assay type: cell-based; conditions: Pancreas adn BXPC-3
Experimental: as §1

P388 leukemia cells = assay: Cytotoxic assay with P388 leukemia cells; assay type: cell-based, mouse; conditions: for ED50: P388 mouse leukemia, dosage required to inhibit 50% of cell growth
Source text: The tubulin polymerization compounds can also be tested for their ability to inhibit tumor cell growth.

[1] = Homo sapiens, SW-1736, read-out: GI50

Compound | GI50 (SW1736; [1]) | IC50 (tubulin) | GI50 (SK-N-SH; Homo sapiens, read-out: GI50) | GI50 (DU-145; Homo sapiens, read-out: GI50) | GI50 (NCI-H460; Homo sapiens, read-out: GI50) | GI50 (FADU; Homo sapiens, read-out: GI50) | GI50 (BXPC-3; Homo sapiens, read-out: GI50) | tubulin polymerization inhibition (tubulin) | activity against P388 leukemia cells (P388 leukemia cells) | IC50 (P388 leukemia cells; Mus musculus, P388, read-out: ED50) | ED50 (P388 leukemia cells) | tubulin polymerization curve at 4 μM (tubulin; 4 μM) | GI50 (SW1736) | GI50 (SK-N-SH) | GI50 (DU-145) | GI50 (NCI-H460) | GI50 (FADU) | GI50 (BXPC-3)
COc1ccc(-c2sc3ccccc3c2C(=O)c2cc(OC)c(OC)c(OC)c2)cc1 [Compound 16A, 3-(3′,4′,5′-trimethoxybenzoyl)-2-(4′-methoxyphenyl)-benzo[b]thiophene] | 4.6 µg/mL (≈ 10.6 µM) | > 40000 nM | 0.83 µg/mL (≈ 1.91 µM) | 4.8 µg/mL (≈ 11 µM) | 2.7 µg/mL (≈ 6.21 µM) | 0.63 µg/mL (≈ 1.45 µM) | 1.7 µg/mL (≈ 3.91 µM) |  |  |  |  |  |  |  |  |  |  | 
COc1ccc(-c2sc3cc(OC)ccc3c2C(=O)/C=C/c2cc(OC)c(OC)c(OC)c2)cc1 [Compound 17A, E-3-[3′-(3′,4′,5′-trimethoxyphenyl)cinnamoyl]-2-(4′-methoxyphenyl)-6-methoxybenzo[b]thiophene] | 5.2 µg/mL (≈ 10.6 µM) | > 40000 nM | 1.3 µg/mL (≈ 2.65 µM) | 7.5 µg/mL (≈ 15.3 µM) | 3.9 µg/mL (≈ 7.95 µM) | 1.8 µg/mL (≈ 3.67 µM) | 2.3 µg/mL (≈ 4.69 µM) |  |  |  |  |  |  |  |  |  |  | 
CCOc1ccc(-c2sc3cc(OCC)ccc3c2C(=O)c2cc(OC)c(OC)c(OC)c2)cc1 [Compound 18A, 3-(3′,4′,5′-trimethoxybenzoyl)-2-(4′-ethoxyphenyl)-6-ethoxybenzo[b]thiophene] | 2.3 µg/mL (≈ 4.67 µM) | > 40000 nM | 0.33 µg/mL (≈ 0.67 µM) | 3.6 µg/mL (≈ 7.31 µM) | 1.4 µg/mL (≈ 2.84 µM) | 0.6 µg/mL (≈ 1.22 µM) | 1.6 µg/mL (≈ 3.25 µM) |  |  |  |  |  |  |  |  |  |  | 
COc1ccc(-c2sc3cc(OC)ccc3c2C(=O)c2cc(OC)c(O)c(OC)c2)cc1 [Compound 19A, 3-(4′-hydroxy-3′,5′-dimethoxybenzoyl)-2-(4′-methoxyphenyl)-6-methoxybenzo[b]thiophene] |  |  |  |  |  |  |  | no observable tubulin polymerization inhibition activity | failed to show measurable activity against the leukemia cells | > 100 µg/mL | >100 µg/mL |  |  |  |  |  |  | 
COc1ccc2c(c1)CCC=C2c1cc(OC)c(OC)c(OC)c1CO [Compound 25D, 1-(hydroxymethyl-3′,4′,5′-trimethoxyphenyl)-6-methoxy-3,4-dihydronaphthalene] | 2.1 µg/mL (≈ 5.89 µM) | > 40000 nM | 0.3 µg/mL (≈ 0.842 µM) | 2.6 µg/mL (≈ 7.29 µM) | 1.5 µg/mL (≈ 4.21 µM) | 0.51 µg/mL (≈ 1.43 µM) | 0.53 µg/mL (≈ 1.49 µM) |  |  |  |  |  |  |  |  |  |  | 
COc1ccc2c(c1)CCC=C2C(=O)c1cc(OC)c(OC)c(OC)c1 [Compound 26D, 1-(3′,4′,5′-trimethoxybenzoyl)-6-methoxy-3,4-dihydronaphthalene] | 0.0048 µg/mL (≈ 0.0135 µM) | 1700 nM | < 0.001 µg/mL | 0.0038 µg/mL (≈ 0.0107 µM) | 0.0033 µg/mL (≈ 0.00931 µM) | 0.0013 µg/mL (≈ 0.00367 µM) | 0.003 µg/mL (≈ 0.00846 µM) |  |  |  |  | total flat |  |  |  |  |  | 
COc1cc(/C=C\c2cc(OC)c(OC)c(OC)c2)ccc1[N+](=O)[O-] [Compound 27E, (Z)-1-(3′-methoxy-4′-nitrophenyl)-2-(3″,4″,5″-trimethoxyphenyl) ethene] | 3.3 µg/mL (≈ 9.56 µM) | > 40000 nM | 2.1 µg/mL (≈ 6.08 µM) | 2.6 µg/mL (≈ 7.53 µM) | 2.3 µg/mL (≈ 6.66 µM) | 1.1 µg/mL (≈ 3.19 µM) | 1.9 µg/mL (≈ 5.5 µM) |  |  |  |  |  |  |  |  |  |  | 
COc1cc(/C=C\c2cc(OC)c(OC)c(OC)c2)ccc1N=[N+]=[N-] [Compound 30E, (Z)-1-(4′azido-3′-methoxyphenyl)-2-(3″,4″,5″-trimethoxyphenyl)ethene] | 0.45 µg/mL (≈ 1.32 µM) | 1500 nM | 0.24 µg/mL (≈ 0.703 µM) | 0.7 µg/mL (≈ 2.05 µM) | 0.35 µg/mL (≈ 1.03 µM) | 0.42 µg/mL (≈ 1.23 µM) | 0.3 µg/mL (≈ 0.879 µM) |  |  |  |  |  |  |  |  |  |  | 
COc1ccc(/C=C\c2cc(OC)c(OC)c(OC)c2)cc1[N+](=O)[O-] [Compound 31E, (Z)-1-(4″-methoxy-3″-nitrophenyl)-2-(3′,4′,5′-trimethoxyphenyl)ethene] |  |  |  |  |  |  |  |  |  |  | 4.0 µg/mL (≈ 11.6 µM) |  | 0.056 µg/mL (≈ 0.162 µM) | >10 µg/mL | 0.046 µg/mL (≈ 0.133 µM) | 0.043 µg/mL (≈ 0.125 µM) | 2.6 µg/mL (≈ 7.53 µM) | 0.037 µg/mL (≈ 0.107 µM)
COc1ccc(/C=C\c2cc(OC)c(OC)c(OC)c2)cc1N [Compound 33E, (Z)-1-(3′-amino-4′-methoxyphenyl)-2-(3″,4″,5″-trimethoxyphenyl)ethene] | < 0.001 µg/mL | […] | < 0.001 µg/mL | 0.00096 µg/mL (≈ 0.00304 µM) | 0.00068 µg/mL (≈ 0.00216 µM) | < 0.001 µg/mL | 0.0013 µg/mL (≈ 0.00412 µM) |  |  |  |  |  |  |  |  |  |  | 
